Assay results as given in patent EP0452507A1, “MEDICINE COMPRISING TOCOPHERYL GLYCOSIDE AS ACTIVE INGREDIENT” (NIPPON HYPOX LABORATORIES INCORPORATED, priority 1989, dated 1991).

Legend:
[1] = test system: delayed-type hypersensitivity; assay: picryl chloride-induced delayed-type hypersensitivity, ear swelling ratio; format: in vivo, mice; settings: Example 1, Fig. 1; VIE-MAN 10, 30, 100 mg/kg/day versus methotrexate 1 mg/kg/day, intraperitoneally
Procedure: 76 Male mice (C57BU6Ncrj) weighing 18 to 20 g were used. The abdominal portion of each mouse was shaved such that the shaved portion was about 1 cm^2. Thereafter, 20 µl of an ethanol solution of 7 % picryl chloride was applied to the shaved portions for sensitization.
Eighteen out of the 76 mice were used as Control group. A physiological saline solution containing 10 % Nikkol (Nikkol: trade name, dissolving aid, supplied by Nikko Chemical Co., Ltd.) was administered intraperitoneally to the 18 mice for the consecutive 5 days after the sensitization, and ear thickness of each of these 18 mice was measured on the eighth day after the sensitization. Thereafter, 20 µl of an olive oil solution of 1 % picryl chloride was applied to the ear of each of the mice to cause delayed-type hypersensitivity.
The above pharmaceutical solutions were administered intraperitoneally at the above-described doses for the five consecutive days after the sensitization, and ear thickness of each of these mice was measured on the eighth day after the sensitization. Thereafter, 20 µl of an olive oil solution of 1 % picryl chloride was applied to the ear of each of the mice to cause delayed-type hypersensitivity.
24 Hours after the delayed-type hypersensitivity was induced, the swelling of the ear of each of the mice of Control group and Example groups ①, ②and③ was measured with a dial thickness gauge. On the basis of the values of the ear thickness measured before the application of the olive oil solution of 1 % picryl chloride, the swelling ratio of each of Example groups ①, ② and ③ and Control group was determined.
And, the swelling ratio of the mice was determined.
At first, the abdominal portion of each of forty ICR male mice weighing 20 to 25 g was shaved such that the shaved portion was about 1 cm^2. Thereafter, 20 µl of an ethanol solution of 7 % picryl chloride was applied to the shaved portions for sensitization.

[2] = test system: antigen-adjuvant-induced inflammation; assay: antigen-adjuvant-induced inflammation, right hind paw swelling by volumetry; format: in vivo, rats; settings: 10 mg/kg intraperitoneally
Procedure: (§1) At first, five groups each consisting of five SD male rats weighing 180 to 220 g (total 25 rats) were prepared, and each rat was measured for a size of the subplantar region of the right hind paw. As an antigen to cause an antigen-adjuvant-induced inflammation, 0.2 mg/rat of egg-white albumin was used. Further, as an immune aid (adjuvant), a mixture consisting of 4 mg/rat of aluminum hydroxide and 0.1 ml/rat of pertussis vaccine was prepared.
One out of the five groups was used as Control group. A physiological saline solution of 10 % Nikkol (trade name, dissolving aid, supplied by Nikko Chemical Co., Ltd.) was administered intraperitoneally to each rat, and 0.5 hour after the administration of the physiological saline solution of 10 % Nikkol, the above antigen and adjuvant were administered intracutaneously into the subplantar region of the right hind paw. Then, 0.5, 1, 2, 4, 6, 12 and 24 hours after the administration of the antigen and adjuvant, the swelling on the subplantar region of the right hind paw of each rat was measured by volumetry. And, the average of swelling ratios of the group in every measurement was determined on the basis of the measurement values of the sizes of subplantar regions of the right hind paws of the rats obtained before the administration of the physiological saline solution of 10 % Nikkol.
One of the remaining four groups was used as Example group @. A physiological saline solution of 10 % Nikkol containing VIE-MAN was administered intraperitoneally into each rat of this group in such a dose that the amount of VIE-MAN was 10 mg/kg, and 0.5 hours after the administration of the physiological saline solution of 10 % Nikkol containing VIE-MAN, the above antigen and adjuvant were administered intracutaneously into the subplantar region of the right hind paw. Thereafter, the swelling on the subplantar region of the right hind paw of each rat was measured in the same manner as that for Control group, and the average of swelling ratios of the group in every measurement was determined.
(§2) The same procedure as that for Example group ⑧ was carried out except that a physiological saline solution of 10 % Nikkol containing hydrocortisone which was an anti-inflammatory preparation (immunosuppressive preparation) in place of the physiological saline solution of 10 % Nikkol containing VIE-MAN was administered intraperitoneally in such a dose that the amount of the hydrocortisone was 10 mg/kg.
as §2, with “diphenhydramine” for “hydrocortisone”, “antihistamine” for “anti-inflammatory”, “preparation” for “preparation (immunosuppressive preparation)”
as §2, with “containing indomethacin” for “containing hydrocortisone”, “was a nonsteroidal” for “was an”, “preparation (antipyretic analgesic antiphlogistic” for “preparation (immunosuppressive”, “the indomethacin” for “the hydrocortisone”
as §1, with “first, four” for “first, five”, “five male” for “five”, “SD” for “SD male”, “(total 20” for “(total 25”, “an antigen- adjuvant-induced” for “an antigen-adjuvant-induced”, “was prepared.” for “was used.”
One out of the four groups was used an Control group, and the procedure for Control group in Example 4 was repeated to determine the average of the swelling ratios as a group unit.

[3] = test system: stomach (mucosal ulcer in the glandular portion); format: in vivo, rats; settings: rat, in vivo
Procedure: 15 male SD rats weighing 180 to 220 g were used. These rats were fasted for 24 hours, and separated to three groups each consisting of 5 rats.
Then, one group was used as Control group. A physiological saline solution of 10 % Nikkol was administered intraperitoneally, and the rats were sacrificed with ether 16 hours after the administration. The stomach of each rat was removed, and after 10 ml of physiological saline was injected into the stomachs, the stomachs were fixed by immersing them in a 1 % formalin for 10 minutes. Each stomach was dissected along the greater curvatura, and the length (mm) of mucosal ulcer which occurred in the glandular portion was measured under an anatomical microscope (x 10). The average of the ulcer lengths of the five rats was taken as an ulcer index.
One out of the remaining two groups was used as Example group @. The procedure for Control group was repeated except that a physiological saline solution of 10 % Nikkol containing VIE-MAN in place of the physiological saline solution of 10 % Nikkol was administered intraperitoneally in such a dose that the amount of VIE-MAN was 300 mg/kg, and the ulcer index was determined.
The remaining one group was used as Comparative Example group ⓘ. The procedure for Example group 17 was repeated except that a physiological saline solution of 10 % Nikkol containing indomethacin, which was a nonsteroidal anti-inflammatory preparation (antipyretic analgesic antiphlogistic preparation), in place of the physiological saline solution of 10 % Nikkol was administered intraperitoneally in such a dose that the amount of the indomethacin was 20 mg/kg, and the ulcer index was determined.

IgE antibody = format: in vivo, rats
Procedure: At first, 20 male SD rats weighing 180 to 220 g were prepared. Egg-white albumin in an amount of 1 mg per rat was prepared as an antigen to induce the IgE antibody-antigen mediating immune response. Further, a mixture of 20 mg/rat of aluminum hydroxide with 0.6 mi/rat of pertussis vaccine was prepared as an immune aid (adjuvant).
Then, the above antigen and the above adjuvant were equally administered intracutaneously into the four footpads of each rat for sensitization.
24 Hours after the sensitization, the footpad swelling of each rat was measured by volumetry to determine the swelling ratio (unit: %). Then, the rats were separated into four groups each consisting of 5 rats such that the average swelling ratio of one group was nearly equal to that of another group.
Thereafter, one of the four groups was used as Control group, and a physiological saline solution of 10 % Nikkol (trade name, dissolving aid, supplied by Nikko Chemical Co., Ltd.) was administered intraperitoneally to each rat for the 11 consecutive days after the group separation, and on 15th day after the group separation, the serum of each rat was collected, and measured for an IgE antibody amount by means of a 48-hour homologous PCA reaction (passive cutaneous anaphylaxis reaction) as an index. In addition, the IgE antibody amount is shown in terms of a maximum dilution (unit: %) of serum showing positive reaction (blue spot having a diameter of not less than 5 mm).
Two groups of the remaining three groups were used as Example groups ⑥ and 0. A physiological saline solution of 10 % Nikkol containing VIE-MAN was administered intraperitoneally to each rat of Example group ⑥ in such a dose that the amount of VIE-MAN was 30 mg/kg/day for 11 days after the group separation. And, a physiological saline solution of 10 % Nikkol containing VIE-MAN was administered intraperitoneally to each rat of Example group 0 every other day (number of days for administration: 6 days) in such a dose that the amount of VIE-MAN was 100 mg/kg/day for 11 days after the group separation. Then, on 15th day after the group separation, the serum of each rat was collected, and measured for an IgE antibody amount in the same manner as that for Control group.
One remaining group of the four groups was used as Comparative Example group @. A physiological saline solution of 10 % Nikkol containing hydrocortisone which was an adrenocortical hormone preparation was administered intraperitoneally to each rat in such a dose that the amount of the hydrocortisone was 10 mg/kg/day for the consecutive 11 days after the group separation. Then, on 15th day after the group separation, the serum of each rat was collected, and measured for an IgE antibody amount in the same manner as that for Example groups 6 and ⑦.

[4] = test system: carrageenin-induced inflammation; assay: carrageenin-induced inflammation, right hind paw swelling by volumetry; format: in vivo, rats; settings: Example 7, Fig. 6
Procedure: Six groups each consisting of five male SD rats weighing 180 to 220 g were used (total 30 rats), and each rat was measured for a size of the subplantar region1 of the right hind paw.
In order to induce carrageenin-induced inflammation, 0.1 ml/rat of a physiological saline solution of 1 % X-carrageenin was prepared.
One out of the six groups was used as Control group. A physiological saline solution of 10 % Nikkol was administered intraperitoneally to each rat of this group, and 0.5 hours after the administration of the physiological saline solution of 10 % Nikkol, 0.1 ml of the physiological saline solution of 1 % X-carrageenin was administered intracutaneously into the subplantar region of the right hind paw of each rat. Then, 0.5, 1, 2, 3 and 4 hours after the administration of […] of the physiological saline solution of 1 % X-carrageenin, the swelling on the subplantar region of the right hind paw of each rat was measured by volumetry, arid the average of swelling ratios of the group in every measurement was determined on the basis of the measurement values of the sizes of subplantar regions of the right hind paws of the rats obtained before the administration of the physiological saline solution of 10 % Nikkol solution.
The procedure for Control group was repeated except that a physiological saline solution of 10 % Nikkol containing VIE-MAN in place of the physiological saline solution of 10 % Nikkol was administered intraperitoneally in such a dose that the amount of VIE-MAN was 10 mg/kg.
The procedure for Control group was repeated except that a physiological saline solution of 10 % Nikkol containing VIE-MAN in place of the physiological saline solution of 10 % Nikkol was administered intraperitoneally in such a dose that the amount of VIE-MAN was 30 mg/kg.
The procedure for Control group was repeated except that a physiological saline solution of 10 % Nikkol containing VIE-MAN in place of the physiological saline solution of 10 % Nikkol was administered intraperitoneally in such a dose that the amount of VIE-MAN was 100 mg/kg.
(§3) The procedure for Example groups ⑭, ⑮ and ⑯ was repeated except that a physiological saline solution of 10 % Nikkol containing cortisone acetate which was a steroidal anti-inflammatory preparation (immunosuppressive preparation) in place of the physiological saline solution of 10 % Nikkol containing VIE-MAN was administered intraperitoneally in such a dose that the amount of the cortisone acetate was 10 mg/kg.
as §3, with “indomethacin” for “cortisone acetate”, “nonsteroidal” for “steroidal”, “(antipyretic analgesic antiphlogistic” for “(immunosuppressive”

## CN(Cc1cnc2nc(N)nc(N)c2n1)c1ccc(C(=O)N[C@@H](CCC(=O)O)C(=O)O)cc1 [methotrexate, reference compound]
[1]
  preventive and therapeutical effect on delayed-type hypersensitivity (comparison): VIE-MAN was superior to methotrexate

## Cc1c(C)c2c(c(C)c1OC1OC(CO)C(O)C(O)C1O)CCC(C)(CCCC(C)CCCC(C)CCCC(C)C)O2 (racemic) [VIE-GAL, dl-a-tocopheryl-,B-galactoside]
[2]; Example 5, Fig. 4, 10 mg/kg
  inhibition activity against antigen-adjuvant-induced inflammations: also superior
[2]; Example 5, Fig. 4, 0.5 hour after administration of antigen and adjuvant, versus Control group
  average of the swelling ratios: significantly lower than that of the swelling ratios of Control group
[3]
  side effect on the digestive system: nearly similar results to that of the test on VIE-MAN

## CN(C)CCOC(c1ccccc1)c1ccccc1 [diphenhydramine, reference compound]
[2]; Example 4, Fig. 3
  inhibition activity against antigen-adjuvant-induced inflammations: no inhibition activity was found

## C[C@]12CCC(=O)C=C1CC[C@@H]1[C@@H]2[C@@H](O)C[C@@]2(C)[C@H]1CC[C@]2(O)C(=O)CO [hydrocortisone, reference compound]
[2]; Example 4, Fig. 3
  inhibition activity against antigen-adjuvant-induced inflammations: no inhibition activity was found
IgE antibody; Example 3 / Comparative Example 2, VIE-MAN 30 or 100 mg/kg/day, hydrocortisone 10 mg/kg/day, intraperitoneally
  inhibition activity against the IgE antibody production: lower than that of VIE-MAN
IgE antibody; group average, (total 11 days) intraperitoneally, maximum dilution of serum showing positive reaction
  IgE antibody amount in serum, Average value: 473.6

## CC(=O)OCC(=O)[C@@]1(O)CC[C@H]2[C@@H]3CCC4=CC(=O)CC[C@]4(C)[C@H]3C(=O)C[C@@]21C [cortisone acetate]
[4]; VIE-MAN 10, 30, 100 mg/kg, depending upon its dose, comparators 10 mg/kg, intraperitoneally
  inhibition activity against carrageenin-induced inflammation: significant activity at and after 0.5 hour
[4]; comparators 10 mg/kg intraperitoneally
  inhibition activity against carrageenin-induced inflammation compared with VIE-MAN: lower than that of VIE-MAN
